According to publication PMC5099547 (British Journal of Clinical Pharmacology, 2016):
Marks after values point to notes of the source that are not given here. One block for each compound: values may come before it.

Columns and labels:
[1] = Safety and tolerability, all three studies; assay type: in vivo, human
[2] = cited from earlier work
[3] = cited from earlier work; remark: listed apart in the source
[4] = test system: P‐gp; details: Caco‐2 cell monolayers; transport strongly hindered by P‐gp inhibitors; cited from earlier work
[5] = test system: OATP1B1; details: cited from earlier work
[6] = test system: OAT1; details: cited from earlier work
[7] = test system: OAT3; details: cited from earlier work
[8] = test system: OCT2; details: cited from earlier work
[9] = Edoxaban-ketoconazole drug interaction study, plasma pharmacokinetics
[10] = Edoxaban-erythromycin drug interaction study, plasma pharmacokinetics
[11] = Edoxaban-cyclosporine drug interaction study, plasma pharmacokinetics
[12] = test system: CYP3A4; details: cited from earlier work
[13] = edoxaban + ketoconazole vs alone, reduced
[14] = edoxaban + erythromycin vs edoxaban alone
[15] = erythromycin study, edoxaban 60 mg alone, mean ± SD, n = 32
[16] = edoxaban + cyclosporine vs edoxaban alone
[17] = edoxaban + cyclosporine vs edoxaban alone, based on geometric LSM ratios

change in clearance [9, 13]: approximately 46%
change in volume of distribution [9, 13]: approximately 46%
increase in total exposure (AUC) ([9]; edoxaban + ketoconazole vs edoxaban alone): 87%
half-life ([9]; human, in vivo): ~11.5 h
AUC(0-inf) ([9]; human, in vivo, 60 mg): 1650 ± 412 ng·h/mL
half-life ([9]; human, in vivo, 60 mg): 11.9 ± 4.11 h
Cmax ([9]; human, in vivo, po, 60 mg): 245 ± 86.9 ng/mL
decrease in apparent volume of distribution [10, 14]: 63%
decrease in total apparent clearance [10, 14]: about 47%
increase in total exposure (AUC) [10, 14]: 85%
AUC (extrapolated to infinity) [10, 15]: 1740 ± 443.7 ^b ng h ml^–1
t1/2 [10, 15]: 10.24 ± 3.71 ^b h
Cmax ([10]; human, in vivo, po, 60 mg): 259 ± 100 ng/mL
increase in peak exposure [11, 16]: approximately 1.7 fold
increase in total exposure [11, 16]: approximately 1.7 fold
increase in peak exposure (Cmax) [11, 17]: 74%
increase in total exposure (AUC) [11, 17]: 73%
AUC(0-inf) ([11]; human, in vivo, 60 mg): 1830 ± 363 ng·h/mL
Tmax ([11]; human, in vivo, 60 mg): 1.5 h
half-life ([11]; human, in vivo, 60 mg): 14.5 ± 5.34 h
Structure (SMILES): CN1CCc2nc(C(=O)N[C@@H]3C[C@@H](C(=O)N(C)C)CC[C@@H]3NC(=O)C(=O)Nc3ccc(Cl)cn3)sc2C1 [Edoxaban]
serious adverse events [1]: No serious adverse events
tolerability ([1]; alone or in combination with ketoconazole, erythromycin, or cyclosporine): well tolerated
metabolism via CYP3A4, share of total clearance [2]: < 4%
oral (absolute) bioavailability [2]: 62%
increase in total exposure with quinidine ([3]; intravenous dosing of edoxaban): about 35%
increase in exposure with quinidine ([3]; oral edoxaban): about 68%
transport via P‐gp [4]: transported via P‐gp
substrate of OATP1B1 [5]: not a substrate
substrate of OAT1 [6]: not a substrate
substrate of OAT3 [7]: not a substrate
substrate of OCT2 [8]: not a substrate

Structure (SMILES): CC(=O)N1CCN(c2ccc(OCC3COC(Cn4ccnc4)(c4ccc(Cl)cc4Cl)O3)cc2)CC1 (centres unmarked) [ketoconazole]
degree of CYP3A4 inhibitory activity [12]: strong
